Assays:
Format in all cases: biochemical
[1] = target: T1, Rat liver mitochondrial MAO (MAO-B) (Rattus norvegicus, UniProt P19643); experiment: MAO-B assay in vitro, benzylamine as substrate; conditions: IC50 values MAO-B, isolated compounds, Table 2
T1 sequence (P19643 1-520): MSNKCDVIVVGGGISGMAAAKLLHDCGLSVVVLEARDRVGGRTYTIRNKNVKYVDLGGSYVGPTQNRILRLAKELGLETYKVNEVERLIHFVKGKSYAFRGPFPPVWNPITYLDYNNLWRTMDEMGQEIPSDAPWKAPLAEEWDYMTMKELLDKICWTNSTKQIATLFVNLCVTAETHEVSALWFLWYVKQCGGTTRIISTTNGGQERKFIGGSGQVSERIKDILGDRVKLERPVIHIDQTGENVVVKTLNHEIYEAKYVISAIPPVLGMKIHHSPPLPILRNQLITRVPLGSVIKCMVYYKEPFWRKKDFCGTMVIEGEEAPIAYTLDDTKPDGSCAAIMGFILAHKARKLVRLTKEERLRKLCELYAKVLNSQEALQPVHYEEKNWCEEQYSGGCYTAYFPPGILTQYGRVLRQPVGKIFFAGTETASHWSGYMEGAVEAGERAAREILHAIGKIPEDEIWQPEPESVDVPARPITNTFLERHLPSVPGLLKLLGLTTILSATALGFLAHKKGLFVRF

[2] = target: T2, Rat brain mitochondrial MAO (MAO-A) (Rattus norvegicus, UniProt P21396); experiment: MAO-A assay in vitro, serotonin as substrate
T2 sequence (P21396 1-526): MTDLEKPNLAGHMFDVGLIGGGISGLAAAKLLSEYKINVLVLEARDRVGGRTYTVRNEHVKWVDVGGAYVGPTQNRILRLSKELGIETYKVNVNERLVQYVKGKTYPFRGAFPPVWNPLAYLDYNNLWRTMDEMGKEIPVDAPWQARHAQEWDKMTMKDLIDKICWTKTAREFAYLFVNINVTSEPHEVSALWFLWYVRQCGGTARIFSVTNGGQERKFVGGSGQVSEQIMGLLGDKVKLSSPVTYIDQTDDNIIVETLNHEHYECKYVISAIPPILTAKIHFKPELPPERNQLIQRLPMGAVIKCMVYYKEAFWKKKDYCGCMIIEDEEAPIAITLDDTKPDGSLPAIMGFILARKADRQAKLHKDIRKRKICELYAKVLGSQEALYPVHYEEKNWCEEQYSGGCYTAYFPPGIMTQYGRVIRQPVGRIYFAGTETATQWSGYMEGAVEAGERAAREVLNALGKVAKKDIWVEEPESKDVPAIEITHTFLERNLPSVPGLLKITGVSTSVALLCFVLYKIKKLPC

[3] = target: T3, dopamine β-hydroxylase (DBH) (Homo sapiens, UniProt P09172); experiment: DBH assay in vitro, tyramine as substrate
T3 sequence (P09172 1-617): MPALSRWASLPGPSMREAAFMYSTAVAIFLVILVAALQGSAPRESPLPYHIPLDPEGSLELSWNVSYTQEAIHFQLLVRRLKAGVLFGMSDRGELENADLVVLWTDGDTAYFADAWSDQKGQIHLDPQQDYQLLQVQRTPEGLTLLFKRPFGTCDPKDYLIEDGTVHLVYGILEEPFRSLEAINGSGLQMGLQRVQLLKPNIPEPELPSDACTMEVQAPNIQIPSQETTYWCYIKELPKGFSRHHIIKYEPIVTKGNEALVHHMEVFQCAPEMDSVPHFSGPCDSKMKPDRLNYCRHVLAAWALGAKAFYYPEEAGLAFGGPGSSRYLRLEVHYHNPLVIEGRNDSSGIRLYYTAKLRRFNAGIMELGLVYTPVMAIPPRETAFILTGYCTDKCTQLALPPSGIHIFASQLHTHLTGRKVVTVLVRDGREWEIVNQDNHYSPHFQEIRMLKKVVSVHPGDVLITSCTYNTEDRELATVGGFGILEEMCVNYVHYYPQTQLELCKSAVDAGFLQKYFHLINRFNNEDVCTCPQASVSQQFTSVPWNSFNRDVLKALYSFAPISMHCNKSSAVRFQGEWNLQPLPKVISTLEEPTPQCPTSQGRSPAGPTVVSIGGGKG

IC50 [1]: 43.9 µM
IC50 [2]: 43.4 µM
IC50 [3]: 516 µM
Compound: CC(C)=CCC/C(C)=C/Cc1c(O)ccc(C(=O)/C=C/c2ccc(O)cc2)c1O [Xanthoangelol]
